According to patent US12098154B2, “Inhibitors of cyclin-dependent kinases” (Dana-Farber Cancer Institute, Inc., priority 2015, dated 2024):
Read-outs that look alike come from different tables or passages of the source.

Assays:
CDK7/CycH = CDK7/CycH (Homo sapiens, UniProt P50613); experiment: CDK7/CycH inhibition (Tables A1, A2); type: biochemical
CDK9/CycT = CDK9/CycT (Homo sapiens, UniProt P50750); experiment: CDK9/CycT inhibition (Tables A1, A2); type: biochemical
Jurkat cells = experiment: Jurkat proliferation assay (CellTiter-Glo); type: cell-based; conditions: for IC50: Homo sapiens, Jurkat
Protocol: (§1) Jurkat cells were seeded at a density of 25,000 cells/well in 96-well plates. Cells were then treated with the indicated compounds in a 10-pt dose escalation format from 1 nM to 10 μM or DMSO control for 72 hours. After 72 hours, the cells were assayed using CellTiter-Glo Luminescent Cell Viability Assay (Promega) to determine cell viability by measuring the amount of ATP present in each sample cell population, which is an indicator of cell metabolic activity. […] All data points were performed in biological triplicate. Error bars are +/−SD.
as §1, with “hrs.” for “hours.”, “hrs,” for “hours, the”

CDK2/CycA = CDK2/CycA (Homo sapiens, UniProt P24941); experiment: CDK2/CycA inhibition (Tables A1, A2); type: biochemical
[1] = test system: TAL1, RUNX1, and MYB mRNA transcripts; experiment: Jurkat gene expression analysis (qPCR); type: cell-based; conditions: 1 μM, 6 hrs, Jurkat cells
Protocol: Jurkat cells were seeded at a density of 5 million cells/10 mL. Cells were then treated with 200 nM or 1 μM of the indicated compounds or with DMSO control for 6 hours. Total RNA was extracted from 5 million cells using the RNeasy Plus Mini Kit (Qiagen) with a gDNA eliminator mini column to remove genomic DNA. mRNA was reverse transcribed into cDNA using the SuperScript III First-Strand Synthesis Kit (Life Technologies) using an oligo-dT primer to capture polyadenylated mRNAs. Quantitative PCR (qPCR) using transcript-specific Taqman probes (Applied Biosystems) was used to assess the effect of compound treatment on the expression of the indicated mRNA transcripts. All experiments shown were performed in biological triplicate. Each individual biological sample was qPCR-amplified in technical duplicate. Error bars are +/−SD. Expression data from drug treatments were normalized to GAPDH probe.
Jurkat cells were seeded at a density of 5 million cells/10 mL. Cells were then treated with 200 nM or 1 μM of the indicated compounds or with DMSO control for 6 hrs. […] Quantitative PCR (qPCR) using transcript-specific Taqman probes (Applied Biosystems) was used to assess the effect of compound treatment on the expression of the indicated mRNA transcripts. […]

[2] = 72 h, CellTiter-Glo, read-out: IC50 on Jurkat T-ALL cell proliferation

Chain of CDK7/CycH (P50613 whole entry): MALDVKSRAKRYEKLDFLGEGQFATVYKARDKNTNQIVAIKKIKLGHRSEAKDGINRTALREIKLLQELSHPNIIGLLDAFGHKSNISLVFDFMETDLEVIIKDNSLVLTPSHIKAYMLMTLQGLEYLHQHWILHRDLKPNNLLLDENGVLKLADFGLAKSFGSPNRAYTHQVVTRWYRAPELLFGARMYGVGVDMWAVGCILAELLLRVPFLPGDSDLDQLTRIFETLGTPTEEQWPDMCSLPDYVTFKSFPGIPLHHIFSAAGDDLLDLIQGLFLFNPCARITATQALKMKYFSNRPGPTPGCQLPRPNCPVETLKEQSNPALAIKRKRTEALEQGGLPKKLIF
Chain of CDK7/CycH (P51946 whole entry partner): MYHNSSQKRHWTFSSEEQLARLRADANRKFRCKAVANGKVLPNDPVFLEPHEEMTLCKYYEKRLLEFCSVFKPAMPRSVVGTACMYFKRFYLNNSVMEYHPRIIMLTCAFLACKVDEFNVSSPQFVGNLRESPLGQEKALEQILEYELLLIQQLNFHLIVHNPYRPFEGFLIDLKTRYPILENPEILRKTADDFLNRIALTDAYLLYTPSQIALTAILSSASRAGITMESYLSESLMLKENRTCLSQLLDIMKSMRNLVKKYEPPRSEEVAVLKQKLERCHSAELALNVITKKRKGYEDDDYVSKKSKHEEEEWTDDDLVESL
Chain of CDK9/CycT (P50750 whole entry): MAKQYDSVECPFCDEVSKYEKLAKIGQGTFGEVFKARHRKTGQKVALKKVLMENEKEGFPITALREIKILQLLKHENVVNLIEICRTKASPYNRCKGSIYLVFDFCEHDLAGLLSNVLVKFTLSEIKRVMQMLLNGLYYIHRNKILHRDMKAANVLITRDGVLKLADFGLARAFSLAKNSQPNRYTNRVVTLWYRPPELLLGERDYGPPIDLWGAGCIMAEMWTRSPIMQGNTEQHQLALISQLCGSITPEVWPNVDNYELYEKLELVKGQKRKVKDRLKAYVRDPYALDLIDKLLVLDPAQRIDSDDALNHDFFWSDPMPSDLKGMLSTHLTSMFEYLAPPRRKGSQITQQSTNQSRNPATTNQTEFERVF
Chain of CDK9/CycT (O60563 whole entry partner): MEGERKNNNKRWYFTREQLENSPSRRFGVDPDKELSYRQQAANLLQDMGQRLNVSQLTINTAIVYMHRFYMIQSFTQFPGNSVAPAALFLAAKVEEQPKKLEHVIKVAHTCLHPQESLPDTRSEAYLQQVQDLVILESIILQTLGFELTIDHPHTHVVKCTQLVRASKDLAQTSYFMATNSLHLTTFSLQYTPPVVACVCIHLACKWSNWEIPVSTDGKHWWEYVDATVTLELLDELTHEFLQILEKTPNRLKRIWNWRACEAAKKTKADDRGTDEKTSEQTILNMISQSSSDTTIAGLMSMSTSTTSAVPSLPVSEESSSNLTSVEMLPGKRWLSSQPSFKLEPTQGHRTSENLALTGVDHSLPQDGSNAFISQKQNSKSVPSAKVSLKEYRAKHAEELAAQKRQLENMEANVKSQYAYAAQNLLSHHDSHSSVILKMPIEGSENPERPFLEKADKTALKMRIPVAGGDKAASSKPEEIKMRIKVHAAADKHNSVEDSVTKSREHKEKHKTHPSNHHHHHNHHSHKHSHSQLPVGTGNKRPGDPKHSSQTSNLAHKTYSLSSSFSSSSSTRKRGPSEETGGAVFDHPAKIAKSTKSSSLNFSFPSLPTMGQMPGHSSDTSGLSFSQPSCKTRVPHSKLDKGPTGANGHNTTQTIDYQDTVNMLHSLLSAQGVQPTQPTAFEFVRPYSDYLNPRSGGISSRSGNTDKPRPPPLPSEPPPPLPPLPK

Row | Structure (SMILES) | IC50 (CDK7/CycH) [nM] | IC50 (CDK9/CycT) [nM] | IC50 (Jurkat cells; read-out: Jurkat IC50) [nM] | IC50 (Jurkat cells; [2]) [nM] | IC50 (CDK2/CycA) [nM] | Downregulation of TAL1, RUNX1, MYB transcripts [1] | Mode of inhibition of Jurkat T-ALL cell proliferation (Jurkat cells)
1 | CC(C)n1cnc2c(Nc3cccc(NC(=O)c4ccc(NC(=O)/C=C/CN(C)C)cc4)c3)nc(N[C@H]3CC[C@H](N(C)C)CC3)nc21 [THZ-3-49-1, 4-((E)-4-(Dimethylamino)but-2-enamido)-N-(3-((2-(((1r,4r)-4-(dimethylamino)cyclohexyl)amino)-9-isopropyl-9H-purin-6-yl)amino)phenyl)benzamide] | 9.43 | 445 | 4030 | – | – | – | –
2 | C=CC(=O)Nc1cccc(Nc2cc(N[C@H]3CC[C@H](N(C)C)CC3)nc3c(CC)cnn23)c1 [SB1-E-21, N-(3-(5-((1r,4r)-4-(Dimethylamino)cyclohexylamino)-3-ethylpyrazolo[1,5-a]pyrimidin-7-ylamino)phenyl)acrylamide] | 1210 | 226 | 318 | > 300 | 1220 | potently reduce | –
3 | CCc1cnn2c(Nc3cccc(NC(=O)c4ccc(NC(=O)/C=C/CN(C)C)cc4)c3)cc(N3CCCC(N)C3)nc12 (centres unmarked) [THZ-4-128-1, (E)-N-(3-((5-(3-Aminopiperidin-1-yl)-3-ethylpyrazolo[1,5-a]pyrimidin-7-yl)amino)phenyl)-4-(4-(dimethylamino)but-2-enamido)benzamide] | 46.8 | 73.4 | 1040 | – | 17100 | – | –
4 | CC(C)n1cnc2c(Nc3cccc(NC(=O)/C=C/CN(C)C)c3)nc(N[C@H]3CC[C@H](N(C)C)CC3)nc21 [THZ-5-18-1] | 121 | 1530 | 1340 | – | – | – | –
5 | C=CC(=O)Nc1cccc(Nc2cc(N[C@H]3CC[C@H](N(C)C)CC3)nc3c(C(C)C)cnn23)c1 [SB1-E-26, N-(3-(5-((1r,4r)-4-(Dimethylamino)cyclohexylamino)-3-isopropylpyrazolo[1,5-a]pyrimidin-7-ylamino)phenyl)acrylamide] | 1090 | 429 | 518 | > 300 | 939 | potently reduce | –
6 | C=CC(=O)Nc1cccc(Nc2nc(N3CCCCC3CCO)nc3c(CC)cnn23)c1 (centres unmarked) [SB1-E-18, N-(3-(8-Ethyl-2-(2-(2-hydroxyethyl)piperidin-1-yl)pyrazolo[1,5-a][1,3,5]triazin-4-ylamino)phenyl)acrylamide] | 461 | 41.8 | 19.2 | – | 15 | – | irreversiably inhibit
7 | CC(C)n1cnc2c(Nc3cccc(NC(=O)c4ccc(NC(=O)/C=C/CN(C)C)cc4)c3)nc(N3CCCC(N)C3)nc21 (centres unmarked) [THZ-4-119-1, (E)-N-(3-((2-(3-Aminopiperidin-1-yl)-9-isopropyl-9H-purin-6-yl)amino)phenyl)-4-(4-(dimethylamino)but-2-enamido)benzamide] | 11.5 | 519 | 1960 | – | – | – | –
8 | C=CC(=O)Nc1ccc(C(=O)Nc2cccc(Nc3nc(N4CCCCC4CCO)nc4c3ncn4C(C)C)c2)cc1 (centres unmarked) [THZ-4-124-1, 4-Acrylamido-N-(3-((2-(2-(2-hydroxyethyl)piperidin-1-yl)-9-isopropyl-9H-purin-6-yl)amino)phenyl)benzamide] | 122 | 373 | 117 | – | 976 | – | –
9 | C=CC(=O)Nc1cccc(Nc2nc(N3CCCCC3CCO)nc3c2ncn3C(C)C)c1 (centres unmarked) [THZ-4-134-1, N-(3-((2-(2-(2-Hydroxyethyl)piperidin-1-yl)-9-isopropyl-9H-purin-6-yl)amino)phenyl)acrylamide] | 1180 | 379 | 522 | – | 163 | – | –
10 | C=CC(=O)NC1CCCC(Nc2nc(N[C@H]3CC[C@H](N(C)C)CC3)nc3c2ncn3C(C)C)C1 (some centres unmarked) [SB1-E-15, N-(3-(2-((1r,4r)-4-(Dimethylamino)cyclohexylamino)-9-isopropyl-9H-purin-6-ylamino)cyclohexyl)acrylamide] | 763 | 58.9 | – | – | 1480 | – | –
